Source: ChEMBL document CHEMBL5370535, “Thiazolyl hydrazineylidenyl indolones as unique potential multitargeting broad-spectrum antimicrobial agents” (Eur J Med Chem, 2023)
≈ marks a conversion by molar mass, not a printed value.

Assays:
Assay type in all cases: functional
[1] = system: Staphylococcus aureus; assay: Antibacterial activity against methicillin-resistant Staphylococcus aureus assessed as bacterial growth inhibition incubated for 24 hrs by CLSI based two serial dilution assay
[2] = system: Enterococcus faecalis; assay: Antibacterial activity against Enterococcus faecalis assessed as bacterial growth inhibition incubated for 24 hrs by CLSI based two serial dilution assay
[3] = system: Staphylococcus aureus; assay: Antibacterial activity against Staphylococcus aureus assessed as bacterial growth inhibition incubated for 24 hrs by CLSI based two serial dilution assay
[4] = system: Staphylococcus aureus; assay: Antibacterial activity against Staphylococcus aureus 25923 assessed as bacterial growth inhibition incubated for 24 hrs by CLSI based two serial dilution assay
[5] = system: Staphylococcus aureus; assay: Antibacterial activity against Staphylococcus aureus 29213 assessed as bacterial growth inhibition incubated for 24 hrs by CLSI based two serial dilution assay
[6] = system: Klebsiella pneumoniae; assay: Antibacterial activity against Klebsiella pneumoniae assessed as bacterial growth inhibition incubated for 24 hrs by CLSI based two serial dilution assay
[7] = system: Escherichia coli; assay: Antibacterial activity against Escherichia coli assessed as bacterial growth inhibition incubated for 24 hrs by CLSI based two serial dilution assay
[8] = system: Escherichia coli; assay: Antibacterial activity against Escherichia coli 25922 assessed as bacterial growth inhibition incubated for 24 hrs by CLSI based two serial dilution assay
[9] = system: Pseudomonas aeruginosa; assay: Antibacterial activity against Pseudomonas aeruginosa assessed as bacterial growth inhibition incubated for 24 hrs by CLSI based two serial dilution assay
[10] = system: Pseudomonas aeruginosa; assay: Antibacterial activity against Pseudomonas aeruginosa ATCC 27853 assessed as bacterial growth inhibition incubated for 24 hrs by CLSI based two serial dilution assay
[11] = system: Acinetobacter baumannii; assay: Antibacterial activity against Acinetobacter baumannii assessed as bacterial growth inhibition incubated for 24 hrs by CLSI based two serial dilution assay
[12] = system: Candida albicans; assay: Antifungal activity against Candida albicans assessed as inhibition of fungal growth incubated for 24 hrs by CLSI based two serial dilution assay
[13] = system: Candida albicans; assay: Antifungal activity against Candida albicans ATCC 90023 assessed as inhibition of fungal growth incubated for 24 hrs by CLSI based two serial dilution assay
[14] = system: Candida tropicalis; assay: Antifungal activity against Candida tropicalis assessed as inhibition of fungal growth incubated for 24 hrs by CLSI based two serial dilution assay
[15] = system: Candida parapsilosis; assay: Antifungal activity against Candida parapsilosis ATCC 22019 assessed as inhibition of fungal growth incubated for 24 hrs by CLSI based two serial dilution assay; details: Lodderomyces parapsilosis
[16] = system: Aspergillus fumigatus; assay: Antifungal activity against Aspergillus fumigatus assessed as inhibition of fungal growth incubated for 24 hrs by CLSI based two serial dilution assay

| SMILES | MIC [1] [µM] | MIC [2] [µM] | MIC [3] [µM] | MIC [4] [µM] | MIC [5] [µM] | MIC [6] [µM] | MIC [7] [µM] | MIC [8] [µM] | MIC [9] [µM] | MIC [10] [µM] | MIC [11] [µM] | MIC [12] [µM] | MIC [13] [µM] | MIC [14] [µM] | MIC [15] [µM] | MIC [16] [µM] |
| --- | --- | --- | --- | --- | --- | --- | --- | --- | --- | --- | --- | --- | --- | --- | --- | --- |
| CCCCN1C(=O)/C(=N\Nc2nccs2)c2cc(F)ccc21 | 2 (≈ 0.637 µg/mL) | 4 (≈ 1.27 µg/mL) | 4 (≈ 1.27 µg/mL) | 4 (≈ 1.27 µg/mL) | 1 (≈ 0.318 µg/mL) | 1 (≈ 0.318 µg/mL) | 1 (≈ 0.318 µg/mL) | 1 (≈ 0.318 µg/mL) | 1 (≈ 0.318 µg/mL) | 4 (≈ 1.27 µg/mL) | 1 (≈ 0.318 µg/mL) | 1 (≈ 0.318 µg/mL) | 1 (≈ 0.318 µg/mL) | 4 (≈ 1.27 µg/mL) | 1 (≈ 0.318 µg/mL) | 4 (≈ 1.27 µg/mL) |
| CCCN1C(=O)/C(=N\Nc2nccs2)c2ccccc21 | 32 (≈ 9.16 µg/mL) | 16 (≈ 4.58 µg/mL) | 16 (≈ 4.58 µg/mL) | 4 (≈ 1.15 µg/mL) | 4 (≈ 1.15 µg/mL) | 32 (≈ 9.16 µg/mL) | 128 (≈ 36.7 µg/mL) | 4 (≈ 1.15 µg/mL) | 2 (≈ 0.573 µg/mL) | 32 (≈ 9.16 µg/mL) | 32 (≈ 9.16 µg/mL) | 64 (≈ 18.3 µg/mL) | 128 (≈ 36.7 µg/mL) | 32 (≈ 9.16 µg/mL) | 32 (≈ 9.16 µg/mL) | 16 (≈ 4.58 µg/mL) |
| CCCCN1C(=O)/C(=N\Nc2nccs2)c2c(Cl)cc(Cl)cc21 | 1 (≈ 0.369 µg/mL) | 4 (≈ 1.48 µg/mL) | 2 (≈ 0.739 µg/mL) | 1 (≈ 0.369 µg/mL) | 2 (≈ 0.739 µg/mL) | 1 (≈ 0.369 µg/mL) | 32 (≈ 11.8 µg/mL) | 1 (≈ 0.369 µg/mL) | 2 (≈ 0.739 µg/mL) | 512 (≈ 189 µg/mL) | 512 (≈ 189 µg/mL) | 0.5 (≈ 0.185 µg/mL) | 2 (≈ 0.739 µg/mL) | 1 (≈ 0.369 µg/mL) | 256 (≈ 94.5 µg/mL) | 128 (≈ 47.3 µg/mL) |
| CCCCCN1C(=O)/C(=N\Nc2nccs2)c2ccccc21 | 4 (≈ 1.26 µg/mL) | 4 (≈ 1.26 µg/mL) | 4 (≈ 1.26 µg/mL) | 16 (≈ 5.03 µg/mL) | 4 (≈ 1.26 µg/mL) | 4 (≈ 1.26 µg/mL) | 16 (≈ 5.03 µg/mL) | 4 (≈ 1.26 µg/mL) | 2 (≈ 0.629 µg/mL) | 16 (≈ 5.03 µg/mL) | 4 (≈ 1.26 µg/mL) | 4 (≈ 1.26 µg/mL) | 4 (≈ 1.26 µg/mL) | 16 (≈ 5.03 µg/mL) | 4 (≈ 1.26 µg/mL) | 4 (≈ 1.26 µg/mL) |
| O=C1/C(=N\Nc2nccs2)c2ccccc2N1Cc1ccccc1Cl | 8 (≈ 2.95 µg/mL) | 32 (≈ 11.8 µg/mL) | 8 (≈ 2.95 µg/mL) | 64 (≈ 23.6 µg/mL) | 64 (≈ 23.6 µg/mL) | 512 (≈ 189 µg/mL) | 256 (≈ 94.4 µg/mL) | 256 (≈ 94.4 µg/mL) | 32 (≈ 11.8 µg/mL) | 512 (≈ 189 µg/mL) | 512 (≈ 189 µg/mL) | 16 (≈ 5.9 µg/mL) | 4 (≈ 1.48 µg/mL) | 16 (≈ 5.9 µg/mL) | 4 (≈ 1.48 µg/mL) | 16 (≈ 5.9 µg/mL) |
| CCCCN1C(=O)/C(=N\Nc2nccs2)c2ccc(F)cc21 | 4 (≈ 1.27 µg/mL) | 32 (≈ 10.2 µg/mL) | 4 (≈ 1.27 µg/mL) | 4 (≈ 1.27 µg/mL) | 4 (≈ 1.27 µg/mL) | 2 (≈ 0.637 µg/mL) | 2 (≈ 0.637 µg/mL) | 4 (≈ 1.27 µg/mL) | 1 (≈ 0.318 µg/mL) | 2 (≈ 0.637 µg/mL) | 1 (≈ 0.318 µg/mL) | 2 (≈ 0.637 µg/mL) | 4 (≈ 1.27 µg/mL) | 32 (≈ 10.2 µg/mL) | 1 (≈ 0.318 µg/mL) | 2 (≈ 0.637 µg/mL) |
| O=C1/C(=N\Nc2nccs2)c2ccccc2N1Cc1cccc(F)c1 | 64 (≈ 22.6 µg/mL) | 8 (≈ 2.82 µg/mL) | 4 (≈ 1.41 µg/mL) | 16 (≈ 5.64 µg/mL) | 4 (≈ 1.41 µg/mL) | 256 (≈ 90.2 µg/mL) | 512 (≈ 180 µg/mL) | 256 (≈ 90.2 µg/mL) | 128 (≈ 45.1 µg/mL) | 128 (≈ 45.1 µg/mL) | 256 (≈ 90.2 µg/mL) | 64 (≈ 22.6 µg/mL) | 32 (≈ 11.3 µg/mL) | 16 (≈ 5.64 µg/mL) | 32 (≈ 11.3 µg/mL) | 128 (≈ 45.1 µg/mL) |
| CCCCCCCCCCCCN1C(=O)/C(=N\Nc2nccs2)c2ccccc21 | 128 (≈ 52.8 µg/mL) | 4 (≈ 1.65 µg/mL) | 32 (≈ 13.2 µg/mL) | 4 (≈ 1.65 µg/mL) | 4 (≈ 1.65 µg/mL) | 32 (≈ 13.2 µg/mL) | 64 (≈ 26.4 µg/mL) | 32 (≈ 13.2 µg/mL) | 16 (≈ 6.6 µg/mL) | 16 (≈ 6.6 µg/mL) | 64 (≈ 26.4 µg/mL) | 32 (≈ 13.2 µg/mL) | 128 (≈ 52.8 µg/mL) | 16 (≈ 6.6 µg/mL) | 64 (≈ 26.4 µg/mL) | 32 (≈ 13.2 µg/mL) |
